One experiment has as its system wild-type seedlings. Briefly: Treatment of wild-type seedlings with synthetic cytokinin (phenocopy of ell mutant morphology). In kind it is in vivo, Arabidopsis. The following applies: 30 μM; in the dark or light. The text has this: From left to right in both FIGS. 1A-1B: wild-type plant; wild-type plant+2ip; ell; and ell+2ip.
Another experiment concerns ell seedlings. The experiment in a line: Exogenous feeding of brassinolide to ell seedlings germinated on agar plates. It is filed as in vivo, Arabidopsis. The following applies: 1 μM in growth medium (agar plates); dark or light. The method, then:
FIGS. 13A-13B are photographs showing that the ell phenotype was not corrected by exogenous feeding of brassinolide (1 μM) in either dark (FIG. 13A) or light (FIG. 13B). From left to right in FIGS. 13A-13B: wild-type; ell; wild-type+brassinolide; and ell+brassinolide.
To determine whether the ell mutant phenotype is corrected by exogenous feeding of brassinolide, we germinated ell seedlings on agar plates containing 1 μM brassinolide or 1 μM 24-epibrassinolide (Li et al., Science 272: 398, 1996). […] Thus, it appears that steroid compounds other than BRs are needed to restore an ell mutant to a normal growth and development phenotype, as reflected by the pleiotropic phenotypes such as stunted roots (FIG. 2) and impaired embryogenesis (FIGS. 7A-7F).

Structures are written as SMILES. “Also recorded” adds a separate entry of the source.

`CC(C)=CCNc1ncnc2nc[nH]c12` [2ip, dimethylallylamino-purine]: the “ell mutant seedling morphology phenocopied in wild-type seedlings” value in the experiment on wild-type seedlings was “phenocopied”.
On to `CC(C)[C@@H](C)[C@@H](O)[C@H](O)[C@@H](C)[C@H]1CC[C@H]2[C@@H]3COC(=O)[C@H]4C[C@H](O)[C@H](O)C[C@]4(C)[C@H]3CC[C@]12C` [24-epibrassinolide], for which the “correction of the ell mutant phenotype by exogenous feeding” value with ell seedlings is given as “did not alter the mutant phenotype”.
With `CC(C)[C@H](C)[C@@H](O)[C@H](O)[C@@H](C)[C@H]1CC[C@H]2[C@@H]3COC(=O)[C@H]4C[C@H](O)[C@H](O)C[C@]4(C)[C@H]3CC[C@]12C` [brassinolide], in the experiment with ell seedlings, the “correction of the ell mutant phenotype by exogenous feeding” value was “not corrected; also recorded: did not alter the mutant phenotype”.

Values taken from patent US6639130B2, “Plant sterol reductases and uses thereof” (The General Hospital Corporation, priority 1996, dated 2003).
